Results: patent publication US10017511B2, “Pyrazolopyrimidinones for the treatment of impotence and process for the preparation thereof” (COUNCIL OF SCIENTIFIC & INDUSTRIAL RESEARCH, priority 2014, dated 2018)

How the values were obtained:
[1] = tested on: conscious rabbit (length of uncovered penile mucosa); assay: In vivo efficacy, conscious rabbit model of penile erection; conditions: 3 mg/kg intravenous, SNP 0.2 mg/kg 5 min later, measured for an hour, SNP alone values subtracted
Procedure: . SNP alone was also used as a control and the values obtained were subtracted from both the molecules).
Nitric oxide is the main neurotransmitter which mediates smooth muscle relaxation by activating the guanylate cyclise during penile erection, which in turn increases the cGMP level.
This solution was injected into the ear vein of a group of five healthy male rabbit (3-3.5 kg weight) in a volume of 0.5 ml/kg. The event was followed 5 minutes later by another equal volume saline injection containing Sodium nitroprusside (0.2 mg/kg), which acts as a donor of Nitric oxide (NO). Length of uncovered penile mucosa was measured with a sliding caliper at different time points for an hour after administration of the test compounds. The area under the curve (AUC) was calculated by Graph Pad Software. Controls experiments were performed with the SNP alone injections. […]

human PDE5A = human PDE5A (Homo sapiens, UniProt O76074); assay: PDE5 enzyme inhibitory assay (PDE Glo Phosphodiesterase Assay)
Procedure: The assays were performed by following the manufacturer recommended protocol.
Data analysis was performed with GraphPad Prism®, version 5.00, for Windows using a sigmoidal dose-response (variable slope) equation. Each point represents an average of two replicates per concentration.

**Q.** For `CCCc1nn(C)c2c(=O)[nH]c(-c3cc(S(=O)(=O)N4CCN(C)CC4)ccc3OCC)nc12` [Sildenafil, reference compound], which “area under the curve (AUC) of length of uncovered penile mucosa” value [1] is on record?
**A.** The value was 330.

**Q.** For `CCCc1nn(C)c2c(=O)[nH]c(-c3cc(S(=O)(=O)N4CCC(O)CC4)ccc3OCC)nc12` [Compound Ab, 5-(2-ethoxy-5-((4-hydroxypiperidin-1-yl)sulfonyl)phenyl)-1-methyl-3-propyl-1H-pyrazolo[4,3-d]pyrimidin-7(6H)-one], which IC50 (human PDE5A) is on record?
**A.** The IC50 was 4.8 nM.

**Q.** What does the source list for `CCCc1nn(C)c2c(=O)[nH]c(-c3cc(S(=O)(=O)N4CCC(=O)CC4)ccc3OCC)nc12` [Compound Aa, 5-(2-ethoxy-5-((4-oxopiperidin-1-yl)sulfonyl)phenyl)-1-methyl-3-propyl-1H-pyrazolo[4,3-d]pyrimidin-7(6H)-one]?
**A.** area under the curve (AUC) of length of uncovered penile mucosa [1]: 722; IC50 (human PDE5A): 0.8 nM
